Source: US20080014584A1, “MODULATING ANDROGEN RECEPTOR ACTIVITY” (MAYO FOUNDATION FOR MEDICAL EDUCATION AND RESEARCH, priority 2006, published 2008)

Legend:
Type in all cases: cell-based
Conditions in all cases: 1 nM mibolerone, 24 hours
AR [1] = molecular target: T1, AR (Homo sapiens, UniProt P10275, T878A); test: PSA mRNA expression (Northern blot) in LNCaP cells; parameters: The androgen depletion independent (ADI) LNCaP-derived C4-2 cell line was purchased from UroCor; endogenous in cells; host or cells: C4-2
T1 sequence (P10275 1-920 T878A): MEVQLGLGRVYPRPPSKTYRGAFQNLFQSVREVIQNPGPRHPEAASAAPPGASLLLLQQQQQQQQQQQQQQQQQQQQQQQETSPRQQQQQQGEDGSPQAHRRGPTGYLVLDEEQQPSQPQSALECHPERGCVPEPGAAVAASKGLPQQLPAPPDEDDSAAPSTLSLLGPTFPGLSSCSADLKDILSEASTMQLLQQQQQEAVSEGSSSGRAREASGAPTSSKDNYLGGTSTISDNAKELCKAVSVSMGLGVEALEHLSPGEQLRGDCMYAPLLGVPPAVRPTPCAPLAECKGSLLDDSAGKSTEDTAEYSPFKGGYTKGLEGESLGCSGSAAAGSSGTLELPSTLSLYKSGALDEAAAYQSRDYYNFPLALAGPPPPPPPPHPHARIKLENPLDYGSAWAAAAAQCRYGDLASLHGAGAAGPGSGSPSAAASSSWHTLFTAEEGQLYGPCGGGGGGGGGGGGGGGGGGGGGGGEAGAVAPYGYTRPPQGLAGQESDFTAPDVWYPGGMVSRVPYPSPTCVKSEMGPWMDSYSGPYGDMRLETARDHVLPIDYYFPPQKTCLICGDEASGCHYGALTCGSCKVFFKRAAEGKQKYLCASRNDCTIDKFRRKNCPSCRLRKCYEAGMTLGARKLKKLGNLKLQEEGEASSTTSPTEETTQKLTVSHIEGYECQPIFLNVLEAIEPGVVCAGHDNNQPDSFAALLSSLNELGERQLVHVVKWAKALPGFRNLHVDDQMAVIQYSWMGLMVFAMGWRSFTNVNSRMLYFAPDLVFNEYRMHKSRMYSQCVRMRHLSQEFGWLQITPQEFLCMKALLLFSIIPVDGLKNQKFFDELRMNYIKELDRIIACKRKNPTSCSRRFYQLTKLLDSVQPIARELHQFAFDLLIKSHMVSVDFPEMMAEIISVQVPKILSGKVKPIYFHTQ
Protocol: (§1) For androgen response experiments, LNCaP and C4-2 cells were grown in serum-free medium or medium supplemented with 10% charcoal stripped (steroid depleted) serum (CSS) for 48 hours. […] The cells were cultured for an additional 24 hours and then harvested. For C4-2 siRNA-transfection experiments, culture medium was replaced 24 hours post-transfection with RPMI containing 5% CSS. The cells were harvested after 48 hours.
Total cellular RNA was isolated using acid-guanidinium phenol/chloroform extraction as described elsewhere (Chomczynski and Sacchi, Anal Biochem. 162:156-9, (1987)). Equal amounts of RNA (15 μg per lane) were fractionated on 1% denaturing formaldehyde-agarose gels. RNA was transferred to Hybond nylon membranes (Amersham, Piscataway, N.J.), UV cross-linked, and then hybridized with cDNA probes specific for PSA or GAPDH labeled with α^32P-dCTP using a RadPrime labeling kit (Invitrogen). Autoradiography was performed at −80° C. using an intensifier screen (Kodak).

AR [2] = molecular target: T1, AR; test: PSA mRNA expression (Northern blot) in C4-2 cells; parameters: The androgen depletion independent (ADI) LNCaP-derived C4-2 cell line was purchased from UroCor; endogenous in cells; host or cells: C4-2
Protocol: as §1
For siRNA transfections, C4-2 cells were seeded at a density of 1.8×10^6 cells on 10 cm dishes in antibiotic-free RPMI 1640 containing 10% FBS. Cells were transfected 24 hours later with 500 pmol of a pool of four siRNAs targeted to the AR (AR SmartPool; Dharmacon, Lafayette, Colo.), or a pool of four non-targeted, control siRNAs (Dharmacon) using 25 μg Lipofectamine (Invitrogen, Carlsbad, Calif.) according to the manufacturer's protocol.
Total cellular RNA was isolated using acid-guanidinium phenol/chloroform extraction as described elsewhere (Chomczynski and Sacchi, Anal Biochem. 162:156-9, (1987)). Equal amounts of RNA (15 μg per lane) were fractionated on 1% denaturing formaldehyde-agarose gels. RNA was transferred to Hybond nylon membranes (Amersham, Piscataway, N.J.), UV cross-linked, and then hybridized with cDNA probes specific for PSA or GAPDH labeled with α^32P-dCTP using a RadPrime labeling kit (Invitrogen). […]

AR [3] = molecular target: T1, AR; test: PSAenh(ARE)-E4-LUC luciferase reporter assay in LNCaP cells; parameters: endogenous in cells
Protocol: The cells were harvested after an additional 24 hours. The transfection efficiency was typically 50-70%.

C[C@@H]1CC2=CC(=O)CC[C@@H]2[C@H]2CC[C@@]3(C)[C@@H](CC[C@]3(C)O)[C@@H]21 [mibolerone]
PSA mRNA expression on androgen treatment (AR [1]): induced high levels of PSA mRNA expression | PSA expression on androgen treatment (AR [2]): further increased | activation of the ARE-driven promoter PSAenh(ARE)E4-LUC (AR [3]): robust activation
